# In patent publication US11702404B2, “GLP-1R modulating compounds” (priority 2019, dated 2023):
# Read-outs that look alike come from different tables or passages of the source.
# Assays:
# [1] = Microsomal stability, human liver microsomes (predicted hepatic clearance); conditions: predicted from in vitro microsomal stability data
# GLP-1R = GLP-1R (Homo sapiens, UniProt P43220); test: GLP-1R activation: cAMP increase in CHO cells stably expressing GLP-1R; assay type: cell-based
# [2] = cAMP increase, CHO cells stably expressing GLP-1R, 10 point dose response, 30 minutes incubation, read-out: EC50
# Sequence of GLP-1R (P43220 24-463): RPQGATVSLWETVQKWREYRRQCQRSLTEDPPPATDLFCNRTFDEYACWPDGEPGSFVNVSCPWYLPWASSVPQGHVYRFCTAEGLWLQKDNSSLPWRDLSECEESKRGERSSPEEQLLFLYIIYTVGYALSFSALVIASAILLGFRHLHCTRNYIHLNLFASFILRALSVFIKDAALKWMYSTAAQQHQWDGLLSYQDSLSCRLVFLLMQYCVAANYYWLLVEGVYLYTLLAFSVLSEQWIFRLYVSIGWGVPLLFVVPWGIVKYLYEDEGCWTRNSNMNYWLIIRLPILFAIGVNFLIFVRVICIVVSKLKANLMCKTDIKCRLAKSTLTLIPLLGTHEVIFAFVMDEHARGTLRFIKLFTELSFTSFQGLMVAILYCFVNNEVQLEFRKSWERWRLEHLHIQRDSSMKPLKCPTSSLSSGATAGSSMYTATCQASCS
SMILES,Predicted Hepatic Clearance (Pred. Cl.) [1],EC50 (GLP-1R; [2]),EC50 (GLP-1R; EC50 (nM))
"N#Cc1ccc(COc2nc(-c3cc(F)c(Cc4nc5ccc(C(=O)O)cc5n4CC4(CF)CC4)cc3F)ncc2F)c(F)c1 [Example 161, 2-(4-(4-((4-cyano-2-fluorobenzyl)oxy)-5-fluoropyrimidin-2-yl)-2,5-difluorobenzyl)-1-((1-(fluoromethyl)cyclopropyl)methyl)-1H-benzo[d]imidazole-6-carboxylic acid]",3.83 mL/min/kg,1 nM,
"COCCn1c(Cc2ccc(-c3ccnc(OCc4ccc(C#N)cc4F)n3)c(F)c2)nc2c(F)cc(C(=O)O)cc21 [Example 558, 2-(4-(2-((4-cyano-2-fluorobenzyl)oxy)pyrimidin-4-yl)-3-fluorobenzyl)-4-fluoro-1-(2-methoxyethyl)-1H-benzo[d]imidazole-6-carboxylic acid]",4 mL/min/kg,22.4 nM,
"COCCn1c(Cc2ccc(-c3cccc(OCc4ccccc4SC(F)(F)F)n3)cc2F)nc2ccc(C(=O)O)cc21 [Example 248, 2-(2-fluoro-4-(6-((2-((trifluoromethyl)thio)benzyl)oxy)pyridin-2-yl)benzyl)-1-(2-methoxyethyl)-1H-benzo[d]imidazole-6-carboxylic acid]",17.8 mL/min/kg,3560 nM,
"CC(C)(C#N)Cn1c(Cc2ccc(-c3cccc(OCc4ccc(C#N)cc4F)n3)c(F)c2)nc2ccc(C(=O)O)cc21 [Example 279, 2-(4-(6-((4-cyano-2-fluorobenzyl)oxy)pyridin-2-yl)-3-fluorobenzyl)-1-(2-cyano-2-methylpropyl)-1H-benzo[d]imidazole-6-carboxylic acid]",8.3 mL/min/kg,3.07 nM,
"COCCn1c(Cc2c(F)cc(-c3cccc(OCc4ccc(C#N)cc4F)n3)cc2F)nc2ccc(C(=O)O)cc21 [Example 39, 2-(4-(6-((4-cyano-2-fluorobenzyl)oxy)pyridin-2-yl)-2,6-difluorobenzyl)-1-(2-methoxyethyl)-1H-benzo[d]imidazole-carboxylic acid]",<1.83 mL/min/kg,8.79 nM,
"COCCn1c(Cc2ccc(-c3cccc(OCc4ccc(C(F)(F)F)nc4OC)n3)cc2F)nc2ccc(C(=O)O)cc21 [Example 458, 2-[[2-fluoro-4-[6-[[2-methoxy-6-(trifluoromethyl)-3-pyridyl]methoxy]-2-pyridyl]phenyl]methyl]-3-(2-methoxyethyl)benzimidazole-5-carboxylic acid]",<1.83 mL/min/kg,2.78 nM,
"O=C(O)c1ccc2nc(Cc3cc(F)c(-c4cccc(OCc5ccc(Cl)cc5F)n4)cc3F)n(CC3(CF)CC3)c2c1 [Example 432, 2-(4-(6-((4-chloro-2-fluorobenzyl)oxy)pyridin-2-yl)-2,5-difluorobenzyl)-1-((1-(fluoromethyl)cyclopropyl)methyl)-1H-benzo[d]imidazole-6-carboxylic acid]",<1.83 mL/min/kg,2.01 nM,
"COCCn1c(Cc2ccc(-c3ccccc3OCc3ccc(C#N)cc3F)cc2F)nc2ccc(C(=O)O)cc21 [Example 182, 2-((2′-((4-cyano-2-fluorobenzyl)oxy)-3-fluoro-[1,1′-biphenyl]-4-yl)methyl)-1-(2-methoxyethyl)-1H-benzo[d]imidazole-carboxylic acid]",7.67 mL/min/kg,449 nM,
"COCCn1c(Cc2ccc(-c3cccc(OCc4ccc(C#N)c(F)c4OC)n3)cc2F)nc2ccc(C(=O)O)cc21 [Example 363, 2-(4-(6-((4-cyano-3-fluoro-2-methoxybenzyl)oxy)pyridin-2-yl)-2-fluorobenzyl)-1-(2-methoxyethyl)-1H-benzo[d]imidazole-6-carboxylic acid]",7.75 mL/min/kg,8.96 nM,
"N#CCC1(Cn2c(Cc3ccc(-c4ccnc(OCc5ccc(C#N)cc5F)n4)c(F)c3)nc3c(F)cc(C(=O)O)cc32)CC1 [Example 303, 2-(4-(2-((4-cyano-2-fluorobenzyl)oxy)pyrimidin-4-yl)-3-fluorobenzyl)-1-((1-(cyanomethyl)cyclopropyl)methyl)-4-fluoro-1H-benzo[d]imidazole-6-carboxylic acid]",4 mL/min/kg,1.33 nM,
"N#CCC1(Cn2c(Cc3ccc(-c4ccnc(OCc5ccc(C#N)cc5F)n4)cc3F)nc3ccc(C(=O)O)cc32)CC1 [Example 353, 2-(4-(2-((4-cyano-2-fluorobenzyl)oxy)pyrimidin-4-yl)-2-fluorobenzyl)-1-((1-(cyanomethyl)cyclopropyl)methyl)-1H-benzo[d]imidazole-6-carboxylic acid]",<1.83 mL/min/kg,1.67 nM,
"CC(C)(CF)Cn1c(Cc2ccc(-c3cccc(OCc4ccc(C#N)cc4F)n3)c(F)c2)nc2ccc(C(=O)O)cc21 [Example 294, 2-(4-(6-((4-cyano-2-fluorobenzyl)oxy)pyridin-2-yl)-3-fluorobenzyl)-1-(3-fluoro-2,2-dimethylpropyl)-1H-benzo[d]imidazole-6-carboxylic acid]",8.3 mL/min/kg,,0.75 nM
"N#Cc1ccc(COc2nccc(-c3cc(F)c(Cc4nc5ccc(C(=O)O)cc5n4CC4(CF)CC4)c(F)c3)n2)c(F)c1 [Example 317, 2-(4-(2-((4-cyano-2-fluorobenzyl)oxy)pyrimidin-4-yl)-2,6-difluorobenzyl)-1-((1-(fluoromethyl)cyclopropyl)methyl)-1H-benzo[d]imidazole-6-carboxylic acid]",2.67 mL/min/kg,1.05 nM,
"COCCn1c(Cc2ccc(-c3cccc(OCc4ccc(C#N)cc4F)n3)c(F)c2)nc2ccc(C(=O)O)cc21 [Example 3, 2-(4-(6-((4-cyano-2-fluorobenzyl)oxy)pyridin-2-yl)-3-fluorobenzyl)-1-(2-methoxyethyl)-1H-benzo[d]imidazole-6-carboxylic acid]",3.83 mL/min/kg,,10.3 nM
COCCn1c(Cc2cc(F)c(-c3cccc(OCc4ccc(C#N)cn4)n3)cc2F)nc2ccc(C(=O)O)cc21 [Example 870],1.83 mL/min/kg,17.6 nM,
"COCCn1c(Cc2ccc(-c3nc(OCc4ccc(C#N)cc4F)c(F)cc3F)cc2F)nc2ccc(C(=O)O)cc21 [Example 73, 2-(4-(6-((4-cyano-2-fluorobenzyl)oxy)-3,5-difluoropyridin-2-yl)-2-fluorobenzyl)-1-(2-methoxyethyl)-1H-benzo[d]imidazole-6-carboxylic acid]",4.5 mL/min/kg,6.13 nM,
"O=C(O)c1ccc2nc(Cc3ccc(-c4ccnc(OCc5ccc(Cl)cc5F)n4)c(F)c3)n(CC3(CF)CC3)c2n1 [Example 318, 2-(4-(2-((4-chloro-2-fluorobenzyl)oxy)pyrimidin-4-yl)-3-fluorobenzyl)-3-((1-(fluoromethyl)cyclopropyl)methyl)-3H-imidazo[4,5-b]pyridine-5-carboxylic acid]",<1.83 mL/min/kg,1.07 nM,
"COCCOCCn1c(Cc2ccc(-c3cccc(OCc4ccc(C#N)cc4F)n3)cc2F)nc2ccc(C(=O)O)cc21 [Example 230, 2-(4-(6-((4-cyano-2-fluorobenzyl)oxy)pyridin-2-yl)-2-fluorobenzyl)-1-(2-(2-methoxyethoxy)ethyl)-1H-benzo[d]imidazole-6-carboxylic acid]",12 mL/min/kg,27.4 nM,
"COCCn1c(Cc2cc(F)c(-c3cccc(OCc4ccc(C(F)F)cc4F)n3)cc2F)nc2ccc(C(=O)O)cc21 [Example 544, 2-(4-(6-((4-(difluoromethyl)-2-fluorobenzyl)oxy)pyridin-2-yl)-2,5-difluorobenzyl)-1-(2-methoxyethyl)-1H-benzo[d]imidazole-6-carboxylic acid]",3.17 mL/min/kg,0.96 nM,
"COCCn1c(Cc2ccc(-c3cccc(OCC(=O)c4ccccc4)n3)cc2F)nc2ccc(C(=O)O)cc21 [Example 214, 2-(2-fluoro-4-(6-(2-oxo-2-phenylethoxy)pyridin-2-yl)benzyl)-1-(2-methoxyethyl)-1H-benzo[d]imidazole-6-carboxylic acid]",16.3 mL/min/kg,745 nM,
"COCCn1c(Cc2cc(F)c(-c3ccnc(OCc4ccc(C#N)cc4F)n3)cc2F)nc2ccc(C(=O)O)cc21 [Example 349, 2-(4-(2-((4-cyano-2-fluorobenzyl)oxy)pyrimidin-4-yl)-2,5-difluorobenzyl)-1-(2-methoxyethyl)-1H-benzo[d]imidazole-6-carboxylic acid]",<1.83 mL/min/kg,3.05 nM,
"COCCn1c(Cc2c(F)cc(-c3cccnc3OC(C)c3ccc(Cl)cc3F)cc2F)nc2ccc(C(=O)O)cc21 (centres unmarked) [Example 372, 2-(4-(2-(1-(4-chloro-2-fluorophenyl)ethoxy)pyridin-3-yl)-2,6-difluorobenzyl)-1-(2-methoxyethyl)-1H-benzo[d]imidazole-6-carboxylic acid]",7.83 mL/min/kg,243 nM,
"Cn1ncnc1Cn1c(Cc2cc(F)c(-c3cccc(OCc4ccc(C#N)cc4F)n3)cc2F)nc2ccc(C(=O)O)cc21 [Example 578, 2-(4-(6-((4-cyano-2-fluorobenzyl)oxy)pyridin-2-yl)-2,5-difluorobenzyl)-1-((1-methyl-1H-1,2,4-triazol-5-yl)methyl)-1H-benzo[d]imidazole-6-carboxylic acid]",4.67 mL/min/kg,13.8 nM,
"COCCn1c(Cc2ccc(-c3cccnc3OCc3ccc(C#N)cc3F)c(F)c2)nc2ccc(C(=O)O)cc21 [Example 108, 2-(4-(2-((4-cyano-2-fluorobenzyl)oxy)pyridin-3-yl)-3-fluorobenzyl)-1-(2-methoxyethyl)-1H-benzo[d]imidazole-6-carboxylic acid]",4.33 mL/min/kg,388 nM,
N#Cc1ccc(COc2nccc(-c3ccc(Cc4nc5ccc(C(=O)O)cc5n4CC45CC(CO4)C5)cc3F)n2)c(F)c1 [Example 626],7.83 mL/min/kg,23.9 nM,
